# What was measured:
# GT1 HCV [1] = assay: Single ascending dose study of Compound 1-A in GT1-HCV infected patients (Part B); format: in vivo, human; settings: single oral dose of Compound 1-A, plasma
# Description: Subjects in Part B received a single dose of Compound 1-A in the fasting state. Patients were confined to the clinic from Day −1 to Day 6.
# Part B was initiated after the safety (through Day 5) and plasma pharmacokinetic (through 24 h) data review from Cohort 3a in Part A. Available safety data (through Day 5) and pharmacokinetic data (through 24 h) was reviewed for the first cohort in Part B (Cohort 1b) before enrolling subsequent Part B cohorts. Subsequent Part B cohorts were only dosed following review of available safety and pharmacokinetic data from the respective doses in Part A as well as available safety (through Day 5) from the prior Part B cohorts.
# Patients infected with HCV were treatment-naïve, non-cirrhotic GT1-infected subjects with a viral load of ≥5 log10 IU/mL.
# Baseline was defined as the mean of Day −1 and Day 1 (pre-dose). […] The mean maximum HCV RNA reduction 24 hours post-dose following a single 300 mg dose was 1.7 log10 IU/mL and this compares to a −2 log 10 IU/mL reduction after 1 day of 400 mg of sofosbuvir monotherapy in GT1a HCV-infected subjects. The mean maximum HCV RNA reduction 24 hours post-dose following a single 100 mg dose was 0.8 log10 IU/mL. The mean 10 maximum HCV RNA reduction was 2.2 log10 IU/mL following a single 400 mg dose.
# [2] = Solubility in biorelevant test medias (water, SGF, FaSSIF, FeSSIF); settings: for Appearance: solubility test; for Descriptive term: solubility
# [3] = Plasma profiles of Compound 1 and metabolite 1-7 after single oral dose of Compound 1-A, Sprague-Dawley rats; format: in vivo; settings: rat, single oral dose of Compound 1-A 500 mg/kg (0.5% CMC, 0.5% Tween 80 in water)
# [4] = system: replicons containing the NS5B sequences from HCV laboratory reference strains (GT1a, 1b, 2a, 3a, 4a and 5a); assay: Replicons containing NS5B sequences from laboratory reference strains; format: cell-based; settings: laboratory strains of HCV Genotypes 1-5
# [5] = Three-part study (Parts C, D, E) of Compound 1-A: overall safety/tolerability and pharmacokinetics; format: in vivo, human; settings: for AUC(0-inf): human, in vivo
# Description: (§1) Part C was a randomized, double-blind, placebo-controlled MAD study divided into three cohorts. […] The dose escalation only proceeded following satisfactory review of the data.
# HCV-infected patients were treatment-naïve with HCV RNA ≥5 log 10 IU/mL. […] Plasma drug levels were measured using LC-MS/MS.
# [6] = Head-to-head comparison of Compound 1 and Compound 1-A in dogs: plasma levels; format: in vivo; settings: dog plasma, normalized to a dose of 25 mg/kg; 25 mg/kg
# Description: A head-to-head comparison of dogs dosed with Compound 1 and Compound 1-A was conducted.
# GT1 HCV [7] = assay: Multiple dose study, 7 days QD, non-cirrhotic GT1 HCV-infected patients (Part C); format: in vivo, human; settings: Part C; for Mean ± SD HCV RNA change from baseline to 24 h / Mean ± SD HCV RNA maximum change from baseline: N = 6
# Description: (§2) Doses were administered as the Compound 1-A salt base. The free base Compound 1 equivalent is often given in parenthesis.
# as §1
# (§3) HCV-infected patients were treatment-naïve with HCV RNA ≥5 log 10 IU/mL. HCV RNA was quantified using COBAS® AmpliPrep TaqMAN® v2.0 with LLQ of 15 IU/mL. Plasma drug levels were measured using LC-MS/MS. […] Mean ages of enrolled subjects were 44, 39, and 56 years in the non-cirrhotic GT1b 600 mg dose cohort, non-cirrhotic GT3 cohort, and the cirrhotic cohort, respectively.
# [8] = Plasma profiles of Compound 1 and metabolite 1-7 after single oral doses of Compound 1-A, cynomolgus monkeys; format: in vivo; settings: monkey
# [9] = system: replicons containing the NS5B sequences from HCV patient plasma samples (GT1a, 1b, 2a, 2b, 3a-1, 3a-2, 4a and 4d); assay: Replicons containing NS5B sequences from HCV patient plasma samples (clinical isolates); format: cell-based
# GT1, GT2, or GT3 HCV = assay: 600 mg QD for 7 days in Child-Pugh A cirrhotic patients with GT1, GT2 or GT3 HCV (Part E); format: in vivo, human; settings: Part E, 600 mg/day
# Description: Doses were administered as the Compound 1-A salt base. The free base Compound 1 equivalent is often given in parenthesis. […]
# as §3
# HCV NS5A = settings: wide range of HCV genotypes and common clinical mutants; cited from earlier work
# GT3 HCV = assay: 600 mg QD for 7 days in non-cirrhotic GT3 HCV-infected patients (Part D); format: in vivo, human; settings: Part D, 600 mg/day, N = 6
# Description: as §2, §1, §3
# [10] = single oral dose of Compound 1-A 30 mg/kg (powder in capsules)
# [11] = single oral dose of Compound 1-A 100 mg/kg (powder in capsules)
# [12] = single oral dose of Compound 1-A 300 mg/kg (powder in capsules)
compound,measurement,setting,value
"CNc1nc(N)nc2c1ncn2[C@@H]1O[C@H](CO[P@@](=O)(N[C@@H](C)C(=O)OC(C)C)Oc2ccccc2)[C@@H](O)[C@@]1(C)F [Compound 1, isopropyl((S)-(((2R,3R,4R,5R)-5-(2-amino-6-(methylamino)-9H-purin-9-yl)-4-fluoro-3-hydroxy-4-methyltetrahydrofuran-2-yl)methoxy)(phenoxy)phosphoryl)-L-alaninate]",time within which the parent is metabolized,GT1 HCV [1],≤ 8 h
same,Appearance,[2]; FaSSIF,Turbid
same,Appearance,[2]; FeSSIF,Turbid
same,Appearance,[2]; SGF,Clear Solution
same,Appearance,[2]; Water,Clear Solution
same,Descriptive term,[2]; FaSSIF,Slightly Soluble
same,Descriptive term,[2]; FeSSIF,Slightly Soluble
same,Descriptive term,[2]; SGF,Sparingly
same,Descriptive term,[2]; Water,Slightly Soluble
same,AUC0-last,[3],78.2 ng·h/mL
same,Cmax,[3],60.8 ng/mL
same,Tmax,[3],15 min
same,"EC50 values, times lower than (more potent than) sofosbuvir",[4],6-11 times
same,estimated fraction absorbed,[5]; based on urine recovery,~50%
same,AUC(0-inf),"[5]; 150 mg/d, AUC Day 1 (AUCinf for Compound 1), Part C, 150 mg/d (n=6), Day 1",492 ± 141 ng·h/mL
same,AUC(0-inf),"[5]; 150 mg/d, AUC SS (AUCinf for Compound 1), Part C, 150 mg/d (n=6), steady state",475 ± 301 ng·h/mL
same,AUC(0-inf),"[5]; 300 mg/d, AUC Day 1 (AUCinf for Compound 1), Part C, 300 mg/d (n=6), Day 1",1950 ± 1120 ng·h/mL
same,AUC(0-inf),"[5]; 300 mg/d, AUC SS (AUCinf for Compound 1), Part C, 300 mg/d (n=6), steady state",1510 ± 976 ng·h/mL
same,AUC(0-inf),"[5]; 600 mg/d, AUC Day 1 (AUCinf for Compound 1), Part C, 600 mg/d (n=6), Day 1",3340 ± 1500 ng·h/mL
same,AUC(0-inf),"[5]; 600 mg/d, AUC Day 1 (AUCinf for Compound 1), Part D, 600 mg/d (n=6), Day 1",3330 ± 1240 ng·h/mL
same,AUC(0-inf),"[5]; 600 mg/d, AUC Day 1 (AUCinf for Compound 1), Part E, 600 mg/d (n=6), Day 1",3320 ± 1470 ng·h/mL
same,AUC(0-inf),"[5]; 600 mg/d, AUC SS (AUCinf for Compound 1), Part C, 600 mg/d (n=6), steady state",4040 ± 2090 ng·h/mL
same,AUC(0-inf),"[5]; 600 mg/d, AUC SS (AUCinf for Compound 1), Part D, 600 mg/d (n=6), steady state",3750 ± 2280 ng·h/mL
same,AUC(0-inf),"[5]; 600 mg/d, AUC SS (AUCinf for Compound 1), Part E, 600 mg/d (n=6), steady state",3530 ± 1600 ng·h/mL
same,Mean Dose-normalized AUC(0-4 hr) for Compound 1,[6],0.2 µM·h
same,half-life,GT1 HCV [7]; daily dosing for 7 days,short half-life
same,AUC0-last,[8]; [10],176 ng·h/mL
same,Cmax,[8]; [10],63.5 ng/mL
same,Tmax,[8]; [10],30 to 120 min
same,AUC0-last,[8]; [11],1100 ng·h/mL
same,Cmax,[8]; [11],783 ng/mL
same,Tmax,[8]; [11],60 to 120 min
same,AUC0-last,[8]; [12],1600 ng·h/mL
same,Cmax,[8]; [12],501 ng/mL
same,EC95,[9]; HCV GT1,approximately 21.7 ng/mL equivalents of metabolite 1-7
same,EC95,[9]; HCV GT2,~11.6 ng/mL equivalents of metabolite 1-7
same,EC95,[9]; HCV GT3,~17.5 ng/mL equivalents of metabolite 1-7
same,"EC95 values, times lower than sofosbuvir",[9]; clinical isolates of all HCV genotypes tested,7-33 times
same,EC95,"[9]; clinical isolates, all tested genotypes",< 80 nM
"COC(=O)N[C@H](C(=O)N1CCC[C@H]1c1ncc(-c2cc(F)c3c(c2)O[C@@H](c2cnc(C4CC4)s2)n2c-3cc3cc(-c4cnc([C@@H]5CCCN5C(=O)[C@@H](NC(=O)OC)C(C)C)[nH]4)ccc32)[nH]1)C(C)C [Compound 2, dimethyl N,N′-([(6S)-6-(2-Cyclopropyl-1,3-thiazol-5-yl)-1-fluoro-6H-indolo[1,2-c][1,3]benzoxazine-3,10-diyl]bis{1H-imidazole-5,2-diyl-(2S)-pyrrolidine-2,1-diyl[(2S)-3-methyl-1-oxobutane-1,2-diyl]})dicarbamate]",Individual HCV RNA maximum change from baseline,"GT1, GT2, or GT3 HCV; GT1b individual subjects, listed as Compd 2","GT1b: 4.0, log10 IU/mL"
same,Individual HCV RNA maximum change from baseline,"GT1, GT2, or GT3 HCV; GT2 individual subject",GT2: 4.8 log10 IU/mL
same,Mean ± SD HCV RNA change from baseline to 24 h,"GT1, GT2, or GT3 HCV; N = 6",2.4 ± 0.2 log10 IU/mL
same,Mean ± SD HCV RNA maximum change from baseline,"GT1, GT2, or GT3 HCV; N = 6",4.6 ± 0.5 log10 IU/mL
same,affinity for HCV NS5A,HCV NS5A,sub- to low-picomolar
same,Mean ± SD HCV RNA change from baseline to 24 h,GT3 HCV,2.3 ± 0.3 log10 IU/mL
same,Mean ± SD HCV RNA maximum change from baseline,GT3 HCV,4.5 ± 0.3 log10 IU/mL
same,Mean ± SD HCV RNA change from baseline to 24 h,GT1 HCV [7]; 150 mg/day,1.2 ± 0.3 log10 IU/mL
same,Mean ± SD HCV RNA maximum change from baseline,GT1 HCV [7]; 150 mg/day,2.6 ± 1.1 log10 IU/mL
same,Mean ± SD HCV RNA change from baseline to 24 h,GT1 HCV [7]; 300 mg/day,1.9 ± 0.2 log10 IU/mL
same,Mean ± SD HCV RNA maximum change from baseline,GT1 HCV [7]; 300 mg/day,4.0 ± 0.4 log10 IU/mL
same,Mean ± SD HCV RNA change from baseline to 24 h,GT1 HCV [7]; 600 mg/day,2.1 ± 0.2 log10 IU/mL
same,Mean ± SD HCV RNA maximum change from baseline,GT1 HCV [7]; 600 mg/day,4.4 ± 0.7 log10 IU/mL

# Source: US20260091050A1, “ADVANTAGEOUS ANTI-HCV COMBINATION THERAPY” (Atea Pharmaceuticals, Inc., priority 2021, published 2026)
